# Article PMC5984089, “FBXW7 regulates DISC1 stability via the ubiquitin-proteosome system” (Molecular Psychiatry, 2017)
# Residues, ends and D or L forms follow the SMILES beside them. *: point of attachment. Cbz = O=C(OCc1ccccc1)*
# Assays:
# [1] = test system: HA-DISC1, HEK293 cells; assay: HA-DISC1 protein level in transfected HEK293 cells; format: cell-based, human; details: MG132 10 μM, Figure 1c, n=3
# Description: HEK293 cells were sourced from ATCC (CRL-1573) and cultured as described in the manufacturer’s protocol. DMEM (SIGMA) supplemented with 10% fetal bovine serum, 2 mM L-glutamine, […] penicillin-streptomycin at 37 °C in a humidified atmosphere of 5% CO2. The cells were passaged at about 80% confluency. Cells were transfected with plasmid DNA using polyfect transfection reagent (Qiagen) according to the manufacturer’s instructions. HEK293 cells were treated with the pharmacological agents cycloheximide (C7698) and MG132 (M7449) (Sigma-Aldrich) or DISC1 disruptor peptides (custom synthesized by Severn Biotech) as described in the text.
# (§1) Briefly, detergent-soluble proteins were isolated from cells by disruption in lysis buffer 20 mM Tris-HCl (pH 7.5), 150 mM NaCl, 1 mM Na2EDTA, 1 mM EGTA, 1% triton, 2.5 mM sodium pyrophosphate, 1 mM β-glycerophosphate, 1 mM Na3VO4, 1 μg ml^–1 leupeptin, 10 mM DTT with Roche protease inhibitor, phosSTOP (Roche, 04906837001). Detergent-insoluble proteins were removed by centrifugation at 10 000 g for 10 min, and the soluble fraction was retained. Cell lysates were adjusted to equal protein amount (1 μg μl^–1) using cell lysis buffer. Cell lysates normalized for the protein concentration were incubated with mouse IgG (Millipore, 12487) Protein A agarose beads for 2 h at 4 °C. […] The complexes were analyzed on SDS PAGE. […]
# [2] = test system: HA-DISC1; assay: DISC1 ubiquitination in transfected HEK293 cells, immunoprecipitation; format: cell-based, human
# Description: as §1
# Antibodies used in this study are detailed in Supplementary Table 1. […] Chemiluminescent images of immune detected bands were recorded on blue-light sensitive autoradiography X-ray films, which were then developed using the Kodak X-Omat Model 2000 processor and band intensities were quantified using image J. Alternatively blots were visualized using the Licor Odyssey system and quantified using LICOR Image Studio Lite (Licor Biosciences).
# Figure 1 DISC1 turnover is regulated by the ubiquitin-proteosome system. […] HA-DISC1 levels were evaluated using densitometry (bar-chart, n=3). ‘Nt’ indicates no treatment control. […]
structure (smiles),measurement,setting,value
CC(C)C[C@@H](C=O)NC(=O)[C@H](CC(C)C)NC(=O)[C@H](CC(C)C)NC(=O)OCc1ccccc1 [MG132] (Cbz-Leu-Leu-Leu-aldehyde),HA-DISC1 protein expression after MG132,[1],transiently increased
same,co-purification of HA-DISC1 with ubiquitin,"[2]; MG132 10 μM, 30 min exposure, Figure 1c",HA-DISC1 immunoprecipitates co-purify with ubiquitin after a 30 min exposure to MG132
same,"DISC1 ubiquitination with over-expressed DISC1 or ubiquitin, further effect of MG132","[2]; MG132 10 µM, Supplementary Figure 1a",not enhanced further by MG132
